According to US20240216336A1, “CLOTRIMAZOLE AS A TREATMENT FOR IMMUNODEFICIENCY DISORDERS” (Northwestern University, priority 2020, published 2024):
Blank lines part the entries; values can stand above or below the compound they belong to.

Tests used:
RAW264.7 cells = assay: Inflammatory cytokine mRNA expression (quantitative RT-PCR) in RAW264.7 cells; format: cell-based, mouse
Method: (§1) RAW264.7 cells were a gift from Jason A. Wertheim MD, PhD. HepG2 and HEK293T cells were obtained from ATCC. RAW264.7, HEK293T, and HepG2 cells were cultured in Dulbecco's Modified Eagle's Medium (DMEM) (Corning) supplemented with 10% FBS (Atlanta Biologicals), 2 mM glutamine (HyClone), and 1 mM sodium pyruvate (Corning). […]
(§2) RNA was isolated from cells or tissues using RNA-STAT60 (Teltest) followed by chloroform extraction and precipitation. Reverse transcription was carried out using qScript cDNA Synthesis Kit (Quanta Bio). The resulting cDNA was amplified quantitatively using PerfeCTa SYBR Green Mix (Quanta Bio) on a 7500 Fast Real-time PCR System (Applied Biosystems). The relative gene expression was determined using differences in Ct values between gene of interest and house-keeping control genes. Complete list of primers can be found in Key Reagents Table (Table 1).

HK1 = molecular target: T1, HK1 (Mus musculus, UniProt P17710); assay: Immunofluorescence of HK1 and mitochondria (MT-Red) with colocalization analysis; format: cell-based; details: WT BMDMs; CLT (20 μM)
T1 construct: IF of HK1 and mitochondria (MT-Red) imaging in RAW264.7 cells±clotrimazole (CLT) (20 μM); endogenous in cells; the running text says WT BMDMs
T1 sequence (P17710 1-918 isoform P17710-3): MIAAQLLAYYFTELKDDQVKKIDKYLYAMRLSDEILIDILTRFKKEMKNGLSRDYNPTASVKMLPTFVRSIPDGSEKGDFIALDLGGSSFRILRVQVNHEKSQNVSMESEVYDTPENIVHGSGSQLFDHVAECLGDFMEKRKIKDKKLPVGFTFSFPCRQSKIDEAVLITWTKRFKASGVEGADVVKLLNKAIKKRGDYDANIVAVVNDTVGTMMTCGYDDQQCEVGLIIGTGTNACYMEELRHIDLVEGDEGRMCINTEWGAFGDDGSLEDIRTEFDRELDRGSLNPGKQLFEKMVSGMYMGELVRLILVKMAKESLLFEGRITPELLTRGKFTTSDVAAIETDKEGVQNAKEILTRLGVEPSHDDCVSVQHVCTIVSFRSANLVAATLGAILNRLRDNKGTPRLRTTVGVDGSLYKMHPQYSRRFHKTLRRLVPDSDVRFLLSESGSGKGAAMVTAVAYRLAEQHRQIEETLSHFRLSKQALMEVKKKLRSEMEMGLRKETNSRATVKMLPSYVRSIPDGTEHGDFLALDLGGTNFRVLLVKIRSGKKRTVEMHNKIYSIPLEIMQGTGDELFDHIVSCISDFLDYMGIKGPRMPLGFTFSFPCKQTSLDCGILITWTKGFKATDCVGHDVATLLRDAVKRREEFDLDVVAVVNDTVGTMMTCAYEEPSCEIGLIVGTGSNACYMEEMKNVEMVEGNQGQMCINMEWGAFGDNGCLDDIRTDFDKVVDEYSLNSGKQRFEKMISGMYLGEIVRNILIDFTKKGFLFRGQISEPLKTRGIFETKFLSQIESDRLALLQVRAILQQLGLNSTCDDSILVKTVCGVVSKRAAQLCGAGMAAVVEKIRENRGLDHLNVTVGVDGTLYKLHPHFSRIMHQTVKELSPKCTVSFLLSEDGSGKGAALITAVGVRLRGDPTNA
Method: Glass-bottom confocal dishes (35 mm; VWR) were coated with 60 nM fibronectin (Sigma-Aldrich), diluted in 0.1% gelatin overnight. Before plating cells, coated confocal dishes were washed twice with PBS. BMDMs (100,000 cells/well), PMs (100,000 cells/well), HepG2 (50,000 cells/well), or RAW264.7 (50,000 cells/well) cells were plated in their respective growth media (complete DMEM or RPMI) and allowed to settle overnight before immunofluorescence (IF) staining. For fixed cell immunofluorescence (IF), cells were plated in 6-well plates (Corning) containing 15 mm glass coverslips (Fisher-Scientific) coated in gelatin and fibronectin. Prior to fixation, growth media was removed and cells were washed 2× with PBS. Cells were fixed with 1 ml of ice-cold 4% formaldehyde for 10 min at room temperature (4% formaldehyde prepared from 16% stock and diluted in PBS). After fixing the cells, plates were washed with PBS 2× and permeabilized with 0.3% triton-X-100 in PBS for 10 min at room temperature. Then, cells were blocked with 10% FBS/PBS for 1 hour at room temperature and subsequently treated with primary antibody diluted in 10% FBS/PBS solution over-night. The next day, secondary antibody was diluted in 10% FBS/PBS at 1:1000 and incubated for 2 hrs at room temperature. […] Images were quantified using ImageJ.

GAPDH [1] = molecular target: T2, GAPDH (Mus musculus, UniProt P16858); assay: GAPDH activity normalized to total protein in RAW264.7 cells; format: cell-based; design: endogenous in cells; host or cells: RAW264.7; details: ±CLT (20 μM)
T2 sequence (P16858 whole entry): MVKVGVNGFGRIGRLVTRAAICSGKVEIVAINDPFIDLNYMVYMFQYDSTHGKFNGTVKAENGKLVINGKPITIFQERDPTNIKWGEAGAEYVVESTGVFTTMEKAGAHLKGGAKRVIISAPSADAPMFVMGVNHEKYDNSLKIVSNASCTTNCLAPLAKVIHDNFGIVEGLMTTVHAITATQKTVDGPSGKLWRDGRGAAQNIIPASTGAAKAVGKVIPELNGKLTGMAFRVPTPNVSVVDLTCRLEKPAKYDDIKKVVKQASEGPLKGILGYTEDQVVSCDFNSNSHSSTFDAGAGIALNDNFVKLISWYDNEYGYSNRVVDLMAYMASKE
Method: as §1
(§3) The following kits were used according to the manufacturer's instructions: Promega NADP/NADPH quantification kit (G9081) and […] (G9071); Glyceraldehyde-3-Phosphate Dehydrogenase Activity Assay kit (abcam); ELISAs for IL-1β (DY401), IL-6 […].

BMDMs [2] = assay: Inflammatory cytokine mRNA expression (quantitative RT-PCR) in BMDMs; format: cell-based, mouse; details: 4 hrs LPS (200 ng/ml) + 1400W (50 μM)
Method: (§4) BMDMs were isolated from ΔE1HK1 and WT mice as previously reported (Rodriguez et al., 2019). Briefly, bone marrow was isolated from the tibia and femur of 8-10-week-old mice by puncturing one end of the femur and tibia with a 27g needle and placing it in a 0.5 ml tube with a hole punched in the bottom. The 0.5 ml tube containing the bone was then placed in a 1.75 ml tube and centrifuged at 5,000×g for 3.5 minutes. Bone marrow was then collected into the 1.75 ml tube and resuspend in 1 ml of RBC lysis buffer (abcam) for 1 minute and then transferred to a 50 ml tube with 4 ml RBC lysis buffer and incubated for 4 minutes. Next, 35 ml of PBS was added and centrifuged at 300×g for 5 min and supernatant was then decanted and cell pellet was re-suspended in complete RPMI with 20 ng/ml mCSF (Preprotech). Cells were counted using a hemocytometer and plated in 10 cm tissue culture plates at a density of 3-million cells/plate. Cells were cultured with 20 ng/mL mCSF to induce differentiation into BMDMs. Media was changed every 2 days and BMDMs were harvested by scraping on day 6 and plated in 12 well plates at a density of 1-million cells/well for mRNA extraction experiments. BMDMs were stimulated in the same manner as peritoneal macrophages (LPS dose for BMDMs was 200 ng/ml).
as §2

GAPDH [3] = assay: GAPDH IP and TMT switch S-nitrosylation western blot in BMDMs; format: cell-based, mouse; details: LPS (200 ng/ml) treated BMDMs ±1400W
Method: GAPDH immunoprecipitation of HepG2 and BMDM cells was performed and nitrosylated cysteines were replaced with covalent binding of TMT using Pierce S-Nitrosylation western blot kit according to manufactures protocol. Briefly, free cysteines were blocked with MMTS reagent, lysates were treated with iodoTMT/ascorbate to induce replacement of unstable S-NO with stable S-TMT moiety. Western blot was then run on the TMT-replaced lysates and probed with GAPDH (dilution 1:8,000) and anti-TMT (dilution 1:1000).

ΔE1HK1 mice = assay: In vivo LPS i.p. injection with 1400W: splenic mRNA and serum ELISA of inflammatory cytokines; design: species or system mouse; details: LPS (15 mg/kg) i.p. + 1400W (10 mg/kg) i.p.
Method: as §2
LPS induced sepsis model in mice was approved by Northwestern University Institutional Animal Care and Use Committee. For short term LPS induced cytokine quantification, C57/B16 mice (aged 10-12 weeks) were treated i.p. with or without 1400W (10 mg/kg) for 2 hrs prior to i.p. treatment with ultrapure 05:B55 LPS from Invivogen (15 mg/kg) i.p. for 4 hours. Whole blood samples were harvested via cardiac puncture after mice were euthanized. Cytokine production in serum from whole blood was measured using the Mouse IL-1β (DY401), IL-6 (DY406), and TNFα (DY410) ELISAs from R&D. For survival studies, Crude 05:B55 LPS (Sigma) was administrated i.p. at a sub-lethal dose of 15 mg/kg and mice were monitored over 72 hrs, every 2-4 hrs for survival and signs of deterioration to determine humane endpoints (Shrum et al., 2014).

BMDMs [4] = assay: Seahorse ECAR trace of BMDMs; format: cell-based, mouse; details: 5 hrs LPS (200 ng/ml) ±1400W (50 μM)
Method: The day before the assay, the Seahorse cartridge was placed in the XF calibrant and incubated overnight at 37° C. On the day of the assay, cells were seeded into the Seahorse 96-well plate at 15,000 cells/80 μl per well for HepG2 cells or 100,000 cells/80 μl per well for BMDMs. The plates were incubated at RT for 1 hour in glucose free complete DMEM or RPMI without bicarbonate or phenol-red to allow even distribution of cells across the well floor. Before placing the sample plates in the Seahorse XF96 Analyzer, medium volume was adjusted to 175 μl in each well. 11 mM or 25 mM glucose for HepG2 cells or BMDMs respectively, Oligomycin at 2 μM, CCCP at 10 μM, and 2DG at […] each, diluted in DMEM, were injected sequentially into each well including control wells, containing only medium, following the standard Seahorse protocol. For acute injection of LPS, the first port of the drug cartridge was replaced with LPS at 200 ng/ml.

GAPDH [5] = assay: GAPDH activity normalized to total protein in PMs from NC and HFD mice; format: cell-based, mouse; details: LPS (300 ng/ml) + 1400W (50 μM) for 4 hrs
Method: Peritoneal macrophages were isolated from 8-10-week-old ΔE1HK1 and littermate control WT mice by peritoneal lavage as described previously (Ray and Dittel, 2010). Briefly, mice were euthanized and the peritoneal cavity was injected with PBS supplemented with 5% FBS using a 27g needle. The abdominal wall was gently agitated to dislodge peritoneal cells. Using a fresh 25g needle, the peritoneal lavage (PBS and peritoneal cells) was aspirated and collected. Cells were then centrifuged at 500 g for 10 min and re-suspended in 1 mL of complete RPMI (Corning) supplemented with 10% FBS (Atlanta Biologicals), 2 mM glutamine (HyClone), 1 mM HEPES (Corning) and 1 mM pyruvate (Corning). Stimulation with LPS (Invivogen) was performed the next day. 300 ng/ml of LPS was given to the cells for 4-6 hrs with or without the following drugs; OT (50 μM), 6-AN (1 mM), 1400W (50 μM), or CGP3466 (50 nM).
as §3

PMs = assay: IL-1β ELISA from media of PMs from NC and HFD mice; format: cell-based, mouse; details: LPS (300 ng/ml) 6 hrs and ATP (2.5 mM) 30 min, 1400W
GAPDH [6] = molecular target: T2, GAPDH; assay: GAPDH activity normalized to total protein in BMDMs; format: cell-based; design: endogenous in cells; details: LPS (200 ng/ml) + 1400W (50 μM)
Method: as §4, with “Media was changed every 2 days and BMDMs were harvested by scraping on day 6 and plated in 12 well plates at a density of 1-million cells/well for mRNA extraction experiments. BMDMs were stimulated in the same manner as peritoneal macrophages (LPS dose for BMDMs was 200 ng/ml).” left out
as §3

[7] = CLT (20 μM) treated cells vs vehicle treated controls
[8] = RAW264.7 cells, koningic acid, LPS

HK1 dislocation from the mitochondria (HK1): significant increase | GAPDH activity in RAW264.7 cells after LPS treatment (GAPDH [1]): significant decrease
Structure (SMILES): Clc1ccccc1C(c1ccccc1)(c1ccccc1)n1ccnc1 [CLT, Clotrimazole]
IL-1β mRNA after LPS stimulation (RAW264.7 cells; [7]): significant increase | IL-6 mRNA after LPS stimulation (RAW264.7 cells; [7]): significant increase | TNFα mRNA after LPS stimulation (RAW264.7 cells; [7]): significant increase | cytokine mRNA levels at baseline (RAW264.7 cells; CLT (20 μM), no LPS): minimal change | production of inflammatory cytokines including IL-1β, TNFα, and IL-6 (RAW264.7 cells; macrophages in vitro (summary statement)): elevated production

GAPDH activity of ΔE1HK1 BMDMs (GAPDH [6]): restored to WT levels
Structure (SMILES): CC(N)=NCc1cccc(CN)c1.Cl.Cl [1400W]
hyper-inflammatory response of ΔE1HK1 BMDMs, IL-1β mRNA (BMDMs [2]): reversal | hyper-inflammatory response of ΔE1HK1 BMDMs, IL-6 mRNA (BMDMs [2]): reversal | hyper-inflammatory response of ΔE1HK1 BMDMs, TNFα mRNA (BMDMs [2]): reversal | higher GAPDH nitrosylation in BMDMs from ΔE1HK1 mice (GAPDH [3]): reversible | hyper-inflammatory response in ΔE1HK1 mice, serum ELISA IL-1β (ΔE1HK1 mice): rescue | hyper-inflammatory response in ΔE1HK1 mice, serum ELISA IL-6 (ΔE1HK1 mice): rescue | hyper-inflammatory response in ΔE1HK1 mice, serum ELISA TNFα (ΔE1HK1 mice): rescue | hyper-inflammatory response in ΔE1HK1 mice, splenic IL-1β mRNA (ΔE1HK1 mice): rescue | hyper-inflammatory response in ΔE1HK1 mice, splenic IL-6 mRNA (ΔE1HK1 mice): rescue | hyper-inflammatory response in ΔE1HK1 mice, splenic TNFα mRNA (ΔE1HK1 mice): rescue | differences in ECAR between ΔE1HK1 and WT BMDMs (BMDMs [4]): eliminated the differences | lower GAPDH activity in PMs of HFD mice (GAPDH [5]): rescued | elevation in IL-1β in HFD PMs (ELISA) (PMs): reversed

Structure (SMILES): CC(C)[C@H]1CC[C@@]2(CO2)[C@H]2C(=O)OCC(C(=O)O)=C[C@H]12 [koningic acid]
IL-1β mRNA expression after LPS treatment (RAW264.7 cells; [8]): increased | IL-6 mRNA expression after LPS treatment (RAW264.7 cells; [8]): increased | TNFα mRNA expression after LPS treatment (RAW264.7 cells; [8]): increased
